Patent publication US9833497B2, “Human originated EGF domain proteins and use of the same” (CHENGDU SOURCEBIO LIMITED-LIABILITY COMPANY, priority 2013, dated 2017)

What was measured:
Type in all cases: cell-based
Enterobacter cloacae = assay: MIC against Gram-negative bacteria: Enterobacter cloacae; conditions: 5×10^5 CFU/mL; for MIC against E. cloacae: Enterobacter cloacae
How it was run: (§1)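 First, colonies from LB agar were grown in LB at 37° C, 185 rpm, to McFarland turbidity 0.5, then centrifuged and resuspended in fresh LB. Next, wells received 5×10^5 CFU/mL bacteria plus two-fold serially diluted EGF domain protein (triplicate). Finally, plates were shaken at 37° C and the no-growth concentration taken as MIC.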

Citrobacter diversus = assay: MIC against Gram-negative bacteria: Citrobacter diversus; conditions: 5×10^5 CFU/mL; for MIC against C. diversus: Citrobacter diversus
How it was run: as §1

Klebsiella pneumonia = assay: MIC against Gram-negative bacteria: Klebsiella pneumonia; conditions: 5×10^5 CFU/mL; for MIC against K. pneumonia: Klebsiella pneumonia
How it was run: as §1

Aeromonas hydrophila = assay: MIC against Gram-negative bacteria: Aeromonas hydrophila; conditions: 5×10^5 CFU/mL; for MIC against A. hydrophila: Aeromonas hydrophila
How it was run: as §1

E. coli DH5α = assay: Antibacterial activity: MIC and growth curve against E. coli DH5α in 96-well plate; conditions: minimal inhibitory concentration against E. coli DH5α; 96-well plate, 5×10^5 CFU/mL, 37° C., judged after 8 h
How it was run: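 Log-phase DH5α (OD600 about 0.5, 37° C, 185 rpm in LB) was pelleted, resuspended in fresh LB and seeded at 5×10^5 CFU/mL with recombinant protein at 50, 25 and 12.5 μg/mL (two-fold series), in triplicate. Plates were shaken at 175 rpm, 37° C, and OD600 was read every 30 min. MIC was the lowest concentration with no growth.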

Serratia marcescens = assay: MIC against Gram-negative bacteria: Serratia marcescens; conditions: 5×10^5 CFU/mL; for MIC against S. marcescens: Serratia marcescens
How it was run: as §1

Proteus vulgaris = assay: MIC against Gram-negative bacteria: Proteus vulgaris; conditions: 5×10^5 CFU/mL; for MIC against P. vulgaris: Proteus vulgaris
How it was run: as §1

E. coli BL21 = assay: MIC against Gram-negative bacteria: E. coli BL21; conditions: 5×10^5 CFU/mL
How it was run: as §1

Pseudomonas aeruginosa = assay: MIC against Gram-negative bacteria: Pseudomonas aeruginosa; conditions: 5×10^5 CFU/mL; for MIC against P. aeruginosa: Pseudomonas aeruginosa
How it was run: as §1

Moraxella catarrhalis = assay: MIC against Gram-negative bacteria: Moraxella catarrhalis; conditions: 5×10^5 CFU/mL; for MIC against M. catarrhalis: Moraxella catarrhalis
How it was run: as §1

Proteus mirabilis = assay: MIC against Gram-negative bacteria: Proteus mirabilis; conditions: 5×10^5 CFU/mL; for MIC against P. mirabilis: Proteus mirabilis
How it was run: as §1

[1] = 10 h cultivation at 37° C., two-fold serial dilution

Substance	MIC against E. cloacae (Enterobacter cloacae; 96-well plate, 37° C., 10 h)	MIC against C. diversus (Citrobacter diversus; 96-well plate, 37° C., 10 h)	MIC against K. pneumonia (Klebsiella pneumonia; 96-well plate, 37° C., 10 h)	MIC against A. hydrophila (Aeromonas hydrophila; 96-well plate, 37° C., 10 h)	MIC (E. coli DH5α)	MIC against S. marcescens (Serratia marcescens; 96-well plate, 37° C., 10 h)	MIC against P. vulgaris (Proteus vulgaris; 96-well plate, 37° C., 10 h)	MIC against E. coli BL21 (E. coli BL21; 96-well plate, 37° C., 10 h)	MIC against P. aeruginosa (Pseudomonas aeruginosa; 96-well plate, 37° C., 10 h)	MIC against M. catarrhalis (Moraxella catarrhalis; 96-well plate, 37° C., 10 h)	MIC against P. mirabilis (Proteus mirabilis; 96-well plate, 37° C., 10 h)	MIC (μg/mL) E. cloacae (Enterobacter cloacae; 10 h cultivation at 37° C.)	MIC (μg/mL) C. diversus (Citrobacter diversus; 10 h cultivation at 37° C.)	MIC (μg/mL) K. pneumonia (Klebsiella pneumonia; 10 h cultivation at 37° C.)	MIC (μg/mL) A. hydrophila (Aeromonas hydrophila; 10 h cultivation at 37° C.)	MIC (μg/mL) S. marcescens (Serratia marcescens; 10 h cultivation at 37° C.)	MIC (μg/mL) P. vulgaris (Proteus vulgaris; 10 h cultivation at 37° C.)	MIC (μg/mL) E. coli BL21 (E. coli BL21; 10 h cultivation at 37° C.)	MIC (μg/mL) P. aeruginosa (Pseudomonas aeruginosa; 10 h cultivation at 37° C.)	MIC (μg/mL) M. catarrhalis (Moraxella catarrhalis; 10 h cultivation at 37° C.)	other results
PRT1201 (DIDECALRTHTCWNDSACINLAGGFDCLCPSGPSCS; listed as Homo sapiens)	50 µg/mL	12.5 µg/mL	25 µg/mL	25 µg/mL	12.5 µg/mL	25 µg/mL	12.5 µg/mL	50 µg/mL	12.5 µg/mL	50 µg/mL	25 µg/mL	–	–	–	–	–	–	–	–	–	–
PRT1485 (DVNECRRPLERRVCHHSCHNTVGSFLCTCRPGFRLRADRVSCE; listed as Homo sapiens)	–	–	–	–	12.5 µg/mL	–	–	–	–	–	–	–	–	–	–	–	–	–	–	–	MIC against E. cloacae (Enterobacter cloacae; 10 h cultivation at 37° C.): 12.5 µg/mL; MIC against C. diversus (Citrobacter diversus; 10 h cultivation at 37° C.): 12.5 µg/mL; MIC against K. pneumonia (Klebsiella pneumonia; 10 h cultivation at 37° C.): 12.5 µg/mL; MIC against A. hydrophila (Aeromonas hydrophila; 10 h cultivation at 37° C.): 50 µg/mL; MIC against S. marcescens (Serratia marcescens; 10 h cultivation at 37° C.): 12.5 µg/mL; MIC against P. vulgaris (Proteus vulgaris; 10 h cultivation at 37° C.): 12.5 µg/mL; MIC against E. coli BL21 (E. coli BL21; 10 h cultivation at 37° C.): 50 µg/mL; MIC against P. aeruginosa (Pseudomonas aeruginosa; 10 h cultivation at 37° C.): 12.5 µg/mL; MIC against M. catarrhalis (Moraxella catarrhalis; 10 h cultivation at 37° C.): 50 µg/mL; MIC against P. mirabilis (Proteus mirabilis; 10 h cultivation at 37° C.): 12.5 µg/mL
PRT207 (RSSNCSAQCHNHGVCNHKQECHCHAGWAPPHCA; listed as Homo sapiens)	–	–	–	–	12.5 µg/mL	–	–	–	–	–	–	12.5 µg/mL	12.5 µg/mL	50 µg/mL	50 µg/mL	50 µg/mL	25 µg/mL	50 µg/mL	12.5 µg/mL	50 µg/mL	MIC (μg/mL) P. mirabilis (Proteus mirabilis; 10 h cultivation at 37° C.): 12.5 µg/mL
PRT821 (DVDECRTHNGGCQHRCVNTPGSYLCECKPGFRLHTDSRTCL; listed as Homo sapiens)	–	–	–	–	12.5 µg/mL	–	–	–	–	–	–	25 µg/mL	25 µg/mL	25 µg/mL	50 µg/mL	50 µg/mL	12.5 µg/mL	12.5 µg/mL	12.5 µg/mL	12.5 µg/mL	MIC (μg/mL) P. mirabilis (Proteus mirabilis; 10 h cultivation at 37° C.): 50 µg/mL
PRT723 (KERTCAENICEQNCTQLNEGGFICSCTAGFETNVFDRTSCL; listed as Homo sapiens)	–	–	–	–	25 µg/mL	–	–	–	–	–	–	–	–	–	–	–	–	–	–	–	MIC E. cloacae (Enterobacter cloacae; 96-well plate, 37° C., 10 h): 50 µg/mL; MIC C. diversus (Citrobacter diversus; 96-well plate, 37° C., 10 h): 25 µg/mL; MIC K. pneumonia (Klebsiella pneumonia; 96-well plate, 37° C., 10 h): 100 µg/mL; MIC A. hydrophila (Aeromonas hydrophila; 96-well plate, 37° C., 10 h): 12.5 µg/mL; MIC S. marcescens (Serratia marcescens; 96-well plate, 37° C., 10 h): 12.5 µg/mL; MIC P. vulgaris (Proteus vulgaris; 96-well plate, 37° C., 10 h): 25 µg/mL; MIC E. coli BL21 (E. coli BL21; 96-well plate, 37° C., 10 h): 50 µg/mL; MIC P. aeruginosa (Pseudomonas aeruginosa; 96-well plate, 37° C., 10 h): 100 µg/mL; MIC M. catarrhalis (Moraxella catarrhalis; 96-well plate, 37° C., 10 h): 12.5 µg/mL; MIC P. mirabilis (Proteus mirabilis; 96-well plate, 37° C., 10 h): 25 µg/mL
PRT697 (DVDECAQEPPPCGPGRCDNTAGSFHCACPAGFRSRGPGAPCQ; listed as Homo sapiens)	–	–	–	–	25 µg/mL	–	–	–	–	–	–	–	–	–	–	–	–	–	–	–	MIC E. cloacae (Enterobacter cloacae; 96-well plate, 37° C., 10 h): 50 µg/mL; MIC C. diversus (Citrobacter diversus; 96-well plate, 37° C., 10 h): 12.5 µg/mL; MIC K. pneumonia (Klebsiella pneumonia; 96-well plate, 37° C., 10 h): 12.5 µg/mL; MIC A. hydrophila (Aeromonas hydrophila; 96-well plate, 37° C., 10 h): 25 µg/mL; MIC S. marcescens (Serratia marcescens; 96-well plate, 37° C., 10 h): 25 µg/mL; MIC P. vulgaris (Proteus vulgaris; 96-well plate, 37° C., 10 h): 25 µg/mL; MIC E. coli BL21 (E. coli BL21; 96-well plate, 37° C., 10 h): 25 µg/mL; MIC P. aeruginosa (Pseudomonas aeruginosa; 96-well plate, 37° C., 10 h): 50 µg/mL; MIC M. catarrhalis (Moraxella catarrhalis; 96-well plate, 37° C., 10 h): 50 µg/mL; MIC P. mirabilis (Proteus mirabilis; 96-well plate, 37° C., 10 h): 12.5 µg/mL
PRT1218 (DINECEREECENGGSCVNVFGSFLCNCTPGYVGQYCG; listed as Homo sapiens)	12.5 µg/mL	25 µg/mL	12.5 µg/mL	12.5 µg/mL	12.5 µg/mL	25 µg/mL	12.5 µg/mL	25 µg/mL	25 µg/mL	12.5 µg/mL	12.5 µg/mL	–	–	–	–	–	–	–	–	–	–
PRT1199 (AFCEEGCRYGGTCVAPNKCVCPSGFTGSHCE; listed as Homo sapiens)	50 µg/mL	25 µg/mL	12.5 µg/mL	25 µg/mL	50 µg/mL	25 µg/mL	50 µg/mL	12.5 µg/mL	50 µg/mL	12.5 µg/mL	25 µg/mL	–	–	–	–	–	–	–	–	–	–
PRT236 (TKTSCAKCPPNASCVNNTHCTCNHGYTSGSGQKLFTFPLETCN; listed as Homo sapiens)	–	–	–	–	12.5 µg/mL	–	–	–	–	–	–	12.5 µg/mL	12.5 µg/mL	12.5 µg/mL	25 µg/mL	12.5 µg/mL	25 µg/mL	12.5 µg/mL	100 µg/mL	25 µg/mL	MIC (μg/mL) P. mirabilis (Proteus mirabilis; 10 h cultivation at 37° C.): 12.5 µg/mL
PRT1223 (LEGACTRSPCQHGGTCMDYWSWQQCHCKEGLTGKYCE; listed as Homo sapiens)	25 µg/mL	25 µg/mL	50 µg/mL	100 µg/mL	50 µg/mL	12.5 µg/mL	50 µg/mL	25 µg/mL	12.5 µg/mL	50 µg/mL	12.5 µg/mL	–	–	–	–	–	–	–	–	–	–
PRT605 (CLCPDDPSSNQYFAHSCYQNLWSSDVICNCLQGYTGTQCGECSTGFYGNPRISGAPCQP; listed as Homo sapiens)	–	–	–	–	12.5 µg/mL	–	–	–	–	–	–	–	–	–	–	–	–	–	–	–	MIC E. cloacae (Enterobacter cloacae; 96-well plate, 37° C., 10 h): 12.5 µg/mL; MIC C. diversus (Citrobacter diversus; 96-well plate, 37° C., 10 h): 50 µg/mL; MIC K. pneumonia (Klebsiella pneumonia; 96-well plate, 37° C., 10 h): 25 µg/mL; MIC A. hydrophila (Aeromonas hydrophila; 96-well plate, 37° C., 10 h): 25 µg/mL; MIC S. marcescens (Serratia marcescens; 96-well plate, 37° C., 10 h): 50 µg/mL; MIC P. vulgaris (Proteus vulgaris; 96-well plate, 37° C., 10 h): 25 µg/mL; MIC E. coli BL21 (E. coli BL21; 96-well plate, 37° C., 10 h): 25 µg/mL; MIC P. aeruginosa (Pseudomonas aeruginosa; 96-well plate, 37° C., 10 h): 50 µg/mL; MIC M. catarrhalis (Moraxella catarrhalis; 96-well plate, 37° C., 10 h): 25 µg/mL; MIC P. mirabilis (Proteus mirabilis; 96-well plate, 37° C., 10 h): 12.5 µg/mL
PRT1134 (NVDDCLMRPCANGATCLDGINRFSCLCPEGFAGRFCT; listed as Homo sapiens)	–	–	–	–	12.5 µg/mL	–	–	–	–	–	–	–	–	–	–	–	–	–	–	–	MIC E. cloacae (Enterobacter cloacae; [1]): 12.5 µg/mL; MIC C. diversus (Citrobacter diversus; [1]): 12.5 µg/mL; MIC K. pneumonia (Klebsiella pneumonia; [1]): 25 µg/mL; MIC A. hydrophila (Aeromonas hydrophila; [1]): 12.5 µg/mL; MIC S. marcescens (Serratia marcescens; [1]): 12.5 µg/mL; MIC P. vulgaris (Proteus vulgaris; [1]): 50 µg/mL; MIC E. coli BL21 (E. coli BL21; [1]): 25 µg/mL; MIC P. aeruginosa (Pseudomonas aeruginosa; [1]): 12.5 µg/mL; MIC M. catarrhalis (Moraxella catarrhalis; [1]): 12.5 µg/mL; MIC P. mirabilis (Proteus mirabilis; [1]): 12.5 µg/mL
PRT750 (DIDECQVAPGEAPTCDHHCHNHLGGFYCSCRAGYVLHRNKRTCS; listed as Homo sapiens)	–	–	–	–	25 µg/mL	–	–	–	–	–	–	12.5 µg/mL	50 µg/mL	25 µg/mL	25 µg/mL	50 µg/mL	12.5 µg/mL	12.5 µg/mL	50 µg/mL	12.5 µg/mL	MIC (μg/mL) P. mirabilis (Proteus mirabilis; 10 h cultivation at 37° C.): 50 µg/mL
